Patent US20260097135A1, “MODIFIED ONCOLYTIC HERPES SIMPLEX VIRUS (oHSV) AND METHODS OF USE THEREOF” (The General Hospital Corporation, priority 2022, published 2026)
Entries after “also recorded” stand apart in the source; their conditions may differ.

B1: R-hIL12: recombinant hIL12 (R&D Systems) with known functional activity, positive control (protein, UniProt P29459 23-219; P29460 23-328, looked up)
Interleukin-12 subunit alpha: RNLPVATPDPGMFPCLHHSQNLLRAVSNMLQKARQTLEFYPCTSEEIDHEDITKDKTSTVEACLPLELTKNESCLNSRETSFITNGSCLASRKTSFMMALCLSSIYEDLKMYQVEFKTMNAKLLMDPKRQIFLDQNMLAVIDELMQALNFNSETVPQKSSLEEPDFYKTKIKLCILLHAFRIRAVTIDRVMSYLNAS
Interleukin-12 subunit beta: IWELKKDVYVVELDWYPDAPGEMVVLTCDTPEEDGITWTLDQSSEVLGSGKTLTIQVKEFGDAGQYTCHKGGEVLSHSLLLLHKKEDGIWSTDILKDQKEPKNKTFLRCEAKNYSGRFTCWWLTTISTDLTFSVKSSRGSSDPQGVTCGAATLSAERVRGDNKEYEYSVECQEDSACPAAEESLPIEVMVDAVHKLKYENYTSSFFIRDIIKPDPPKNLQLKPLKNSRQVEVSWEYPDTWSTPHSYFSLTFCVQVQGKSKREKKDRVFTDKTSATVICRKNASISVRAQDRYYSSSWSEWASVPCS

System: human NK cell line NK-92MI
Assay: hIL-12 bioactivity: IFN-γ production by NK-92MI cells (ELISA)
Type: cell-based
Procedure: HIL12 levels were measured with the human p70 Quantikine ELISA kit (R&D Systems, Bio-Techne, Minneapolis, MN). Functional hIL12 was assessed using human NK cell line NK-92MI (ATCC (CRL-2408)) and hIL-12 induced IFN-γ production. Recombinant hIL12 (R-hIL12; R&D Systems) with known functional activity was used as a positive control. NK-92MI cells were seeded in a 48-well plate at 2×10^4 cells/well. hIL12 produced by virus-infected cells 64 hpi or R-hIL12 was added to NK-92MI cell cultures at the indicated concentrations (with or without 10 μg/ml heparin). HIL12-dependent secretion of IFN-γ into the supernatant was quantified after 24 hrs via ELISA (Human IFN-gamma Quantikine ELISA Kits (R&D systems)).

Molecule | effect of heparin on hIL-12-induced IFN-γ (heparin 10 μg/ml) | hIL-12 induced IFN-γ production by NK-92MI cells (hIL-12 from infected Vero supernatants (64 hpi) or recombinant, 24 hrs)
heparin | greatly enhanced the activity of hIL12; also recorded: synergizes with hIL-12 in stimulating hIFNγ production | 
B1 |  | dose-dependent manner
